Where two headings read alike, the source gives them in different places.
Tests used:
[1] = target: T1, LasB (Pseudomonas aeruginosa, UniProt Q02RJ6); test: biochemical; assay type: biochemical
T1 construct: made in house

[2] = Metabolic stability in mouse liver S9 fraction; assay type: in vitro ADME
[3] = Metabolic stability in human liver S9 fraction; assay type: in vitro ADME
[4] = Plasma stability, mouse; assay type: in vitro ADME
[5] = target: T2, MMP-1 (Homo sapiens, UniProt P03956); test: MMP-1 inhibition assay; assay type: biochemical; conditions: read-out: % inhibition MMP-1
T2 construct: purchased AnaSpec (Fremont, CA, USA)
T2 sequence (P03956 100-469): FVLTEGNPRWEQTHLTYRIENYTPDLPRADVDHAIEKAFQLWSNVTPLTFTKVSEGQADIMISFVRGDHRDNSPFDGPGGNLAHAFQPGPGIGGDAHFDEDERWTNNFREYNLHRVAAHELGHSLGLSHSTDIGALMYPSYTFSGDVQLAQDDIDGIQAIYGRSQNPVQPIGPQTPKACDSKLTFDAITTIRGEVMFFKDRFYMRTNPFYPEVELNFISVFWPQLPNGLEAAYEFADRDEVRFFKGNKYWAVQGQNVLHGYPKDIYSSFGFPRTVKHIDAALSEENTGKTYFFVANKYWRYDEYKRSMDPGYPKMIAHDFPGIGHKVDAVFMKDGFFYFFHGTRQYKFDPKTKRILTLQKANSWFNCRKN

[6] = target: T3, MMP-2 (Homo sapiens, UniProt P08253); test: MMP-2 inhibition assay; assay type: biochemical; conditions: read-out: % inhibition MMP-2
T3 construct: purchased AnaSpec (Fremont, CA, USA)
T3 sequence (P08253 110-660): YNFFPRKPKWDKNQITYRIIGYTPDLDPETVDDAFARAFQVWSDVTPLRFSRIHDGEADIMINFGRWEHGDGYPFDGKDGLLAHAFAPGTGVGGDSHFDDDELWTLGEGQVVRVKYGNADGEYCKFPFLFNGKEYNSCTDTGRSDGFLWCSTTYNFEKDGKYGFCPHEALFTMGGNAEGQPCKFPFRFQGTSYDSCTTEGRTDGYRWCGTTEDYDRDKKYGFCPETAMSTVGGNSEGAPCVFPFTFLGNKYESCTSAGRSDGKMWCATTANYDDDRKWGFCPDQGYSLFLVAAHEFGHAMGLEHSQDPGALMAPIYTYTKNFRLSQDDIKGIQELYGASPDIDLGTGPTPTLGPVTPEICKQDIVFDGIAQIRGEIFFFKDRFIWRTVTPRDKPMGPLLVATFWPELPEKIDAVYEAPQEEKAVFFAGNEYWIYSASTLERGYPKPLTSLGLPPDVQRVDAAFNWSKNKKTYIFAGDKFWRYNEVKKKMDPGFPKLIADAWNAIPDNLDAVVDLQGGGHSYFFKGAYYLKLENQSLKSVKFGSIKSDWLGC

[7] = target: T4, MMP-3 (Homo sapiens, UniProt P08254); test: MMP-3 inhibition assay; assay type: biochemical; conditions: read-out: % inhibition MMP-3
T4 construct: purchased AnaSpec (Fremont, CA, USA)

[8] = target: T5, TACE (Homo sapiens, UniProt P78536); test: TACE inhibitor screening kit; assay type: biochemical; conditions: read-out: % inhibition TACE
T5 construct: purchased Sigma-Aldrich (Saint Louis, MO)

[9] = target: ColH-PD (Hathewaya histolytica, UniProt Q46085); test: biochemical; assay type: biochemical, Clostridium histolyticum; conditions: read-out: % inhibition ColH-PD @1 µM
[10] = Microsomal stability, mouse liver microsomes; assay type: in vitro ADME; conditions: C57BL6, mouse, pooled liver microsomes
[11] = Microsomal stability, minipig liver microsomes; assay type: in vitro ADME; conditions: Göttingen, pooled liver microsomes
[12] = Plasma stability, rat; assay type: in vitro ADME; conditions: Wistar, pooled plasma, species profiling, read-out: Plasma T1/2 Rat (Wistar)
[13] = Plasma stability, minipig; assay type: in vitro ADME; conditions: Göttingen, pooled plasma, species profiling, read-out: Plasma T1/2 Minipig (Göttingen)
[14] = system: P. aeruginosa PA14; test: Bacterial growth inhibition assay; assay type: cell-based, Pseudomonas aeruginosa
Description: Bacterial growth inhibition assay. Assays regarding the determination of the MIC were
performed as described recently for P. aeruginosa PA14.58

[15] = in vivo; conditions: mice, nebulization 10 mg/kg; for Cmax / Tmax: 10 mg/kg
Description: Up to 5 compounds were dosed per cassette.
anesthetized using ketamine 100 mg/kg and xylazine 10 mg/kg intraperitoneally.
time point) were euthanized at t= 0.5, 2 and 5 h post administration.
10 mg/kg using a Kent Scientific Aeroneb® nebulizer.
Blood was collected from the heart.
blood was collected into Eppendorf tubes coated with 0.5 M EDTA and immediately spun down
at 13,000 rpm for 10 min at 4 °C. The plasma was transferred into a new Eppendorf tube and then
stored at –80 °C until analysis. Then, a broncheoalveolar lavage was conducted using isotonic
sodium chloride solut ion. Lung, kidneys, and liver were aseptically removed and homogenized
using a Polytron tissue homogenizer (Kinematica) in isotonic sodium chloride solution.
samples were aliquoted into Eppendorf tubes and stored at –80 °C until analysis.
spontaneous urine was also collected. Bioanalytical sample preparation.
an AB Sciex QTrap6500+ mass spectrometer. First, a calibration curve was prepared by spiking
Caffeine was used as an internal standard.
min at 2,000 rpm on an Eppendorf MixMate® vortex mixer.
caffeine as internal standard for 5 min at 2000 rpm on an Eppendorf MixMate® vortex mixer.
Then samples (plasma and urine) were spun down at 1 3,000 rpm for 5 min. Supernatants were transferred to standard HPLC -glass vials.
tissue sample (calibration samples, QCs or PK samples) were extracted with 50 µL of methanol
and 1 µL caffeine (concent ration 1 µg/mL in methanol) for 5 min at 800 rpm on an Eppendorf MixMate® vortex mixer. Then samples (BALF, liver, kidney, lung) were spun down at 4,000 rpm
for 40 min at 4 °C. Supernatants were transferred to 96well V -bottom plates (Greiner).
conditions were as follows: column: Agilent Zorbax Eclipse Plus C18, 50x2.1 mm, 1.8 µm;
temperature: 30 °C; injection volume: 5 µL; flow rate: 700 µL/min; solvent A: water + 0.1%
Urea was used to enable calculation of
epithelial lining fluid (ELF) concentrations. Peak areas of each sample and of the corresponding
internal standard were analyzed using MultiQuant 3.0 software (AB Sciex).
respective sample were normalized to the internal standard peak area.
compound were used for qualification.
curve. The accuracy of the calibration curve was determined using QCs independently prepared
on different days. PK parameters were determined using a non-compartmental analysis with

[16] = system: LasB; assay type: in vivo, mouse; conditions: compared to the vehicle group; 4b 10 mg/kg TID, levofloxacin 25 mg/kg
[17] = system: 3D lung organoids; test: Lung organoid assay; assay type: cell-based, human
[18] = system: HepG2; conditions: human, 48 h, 100 µM
Description: (§1) Culturing of HepG2, A549 and HEK293 cells. The human hepatocellular carcinoma cell line HepG2, the lung adenocarcinoma cell line A549 and Human Embryonic (HEK) 293 cells were cultured in Dulbecco's Modified Eagle Medium (DMEM), containing 10% Fetal Bovine Serum
(§2) (FBS) and 1% penicillin-streptomycin mixture. Cells were maintained according to standard cell
(§3) Cytotoxicity assay. An MTT-based assay was employed to evaluate the viability of HepG2,
(§4) HEK293 and A549 cells after challenge with selected LasB inhibitors and performed as described

[19] = system: HEK293; conditions: human, 48 h, 100 µM
Description: as §1, §2, §3, §4

[20] = system: zebrafish embryos; test: Zebrafish embryo toxicity
Description: Zebrafish embryo toxicity. The experiment was performed according to a procedure described
in the literature55 with minor modifications using zebrafish embryos of the AB wild-type line at 1
day post fertilization (dpf).
Zebrafish embryo toxicity.

[21] = system: Galleria mellonella larvae infected with wt PA14; test: G. mellonella infection model
[22] = system: A549 cells treated with P. aeruginosa PAO1 and PA14 supernatants; test: A549 cells challenged with P. aeruginosa culture supernatants
Description: Cells were maintained according to standard cell
PA14 csn production. The csn of wt PA14 and ΔlasB PA14 was produced as we previously
Validation of the effect of LasB inhibitors on A549 cells in vitro. The experiment was performed
as described previously.32 The Picrosirius red assay was performed by washing the csn-challenged
cells (± inhibitor) 3x with PBS followed by an incubation with Bouin solution (Sigma) at RT for
20 min. The cells were incubated with 0.1% Picrosirius red dye (ab150681) at RT for 2 h. Then,
they were washed once with 0.01 N HCl, and the matrix was dissolved in 0.01 N NaOH. The
absorption was measured at 570 nm using a PHERAstar plate reader (BMG Labtech). By dividing
the absorbance of each sample by the absorbance of the healthy sample, the relative collagen
quantity was determined. For each condition, the experiment was performed three times. To
determine the rescue of A549 cells treated with 5% wt PA14 csn using our compounds, the LasB
inhibitors were used at 2, 0.5, 0.1 and 0.05 µM. The compounds were incubated in F12K medium,
Cell detachment was then evaluated, and a Trypan Blue cell
cells/well were seeded into a flat bottom 96-well plate (Corning™ Costar™) and incubated at 37
were tested against 10% (v/v) P. aeruginosa PAO1 csn diluted in DMEM starting from 10 µM
and 20 µM, respectively. Compound was initially dissolved in DMSO, and a low final assay
concentration of 0.5% (v/v) was applied to minimize the proteolytic effect of DMSO on the
bacterial culture supernatant. In addition, cells were challenged with 10% (v/v) of ΔlasB PAO1 to

T1 sequence (Q02RJ6 198-498): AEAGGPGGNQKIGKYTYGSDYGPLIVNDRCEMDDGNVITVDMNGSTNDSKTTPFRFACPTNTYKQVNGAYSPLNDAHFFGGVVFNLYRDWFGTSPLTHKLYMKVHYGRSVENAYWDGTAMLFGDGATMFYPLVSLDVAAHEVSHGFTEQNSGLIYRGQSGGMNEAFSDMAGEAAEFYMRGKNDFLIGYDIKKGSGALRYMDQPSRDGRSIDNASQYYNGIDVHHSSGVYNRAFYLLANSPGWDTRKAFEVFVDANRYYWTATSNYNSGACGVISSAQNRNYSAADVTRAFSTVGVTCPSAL
ColH-PD, sequence (Q46085 331-721 limits assumed): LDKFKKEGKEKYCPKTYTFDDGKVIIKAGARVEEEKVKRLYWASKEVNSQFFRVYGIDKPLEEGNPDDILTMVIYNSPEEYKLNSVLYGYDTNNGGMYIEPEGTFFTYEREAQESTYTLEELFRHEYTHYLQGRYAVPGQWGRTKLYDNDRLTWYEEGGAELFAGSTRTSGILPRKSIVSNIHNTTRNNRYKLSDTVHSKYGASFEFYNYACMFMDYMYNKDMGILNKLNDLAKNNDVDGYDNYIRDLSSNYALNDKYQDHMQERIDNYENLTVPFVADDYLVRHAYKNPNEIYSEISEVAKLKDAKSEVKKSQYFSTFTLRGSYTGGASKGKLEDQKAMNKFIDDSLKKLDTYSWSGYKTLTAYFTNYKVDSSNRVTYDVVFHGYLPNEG
T5 sequence (P78536 215-824): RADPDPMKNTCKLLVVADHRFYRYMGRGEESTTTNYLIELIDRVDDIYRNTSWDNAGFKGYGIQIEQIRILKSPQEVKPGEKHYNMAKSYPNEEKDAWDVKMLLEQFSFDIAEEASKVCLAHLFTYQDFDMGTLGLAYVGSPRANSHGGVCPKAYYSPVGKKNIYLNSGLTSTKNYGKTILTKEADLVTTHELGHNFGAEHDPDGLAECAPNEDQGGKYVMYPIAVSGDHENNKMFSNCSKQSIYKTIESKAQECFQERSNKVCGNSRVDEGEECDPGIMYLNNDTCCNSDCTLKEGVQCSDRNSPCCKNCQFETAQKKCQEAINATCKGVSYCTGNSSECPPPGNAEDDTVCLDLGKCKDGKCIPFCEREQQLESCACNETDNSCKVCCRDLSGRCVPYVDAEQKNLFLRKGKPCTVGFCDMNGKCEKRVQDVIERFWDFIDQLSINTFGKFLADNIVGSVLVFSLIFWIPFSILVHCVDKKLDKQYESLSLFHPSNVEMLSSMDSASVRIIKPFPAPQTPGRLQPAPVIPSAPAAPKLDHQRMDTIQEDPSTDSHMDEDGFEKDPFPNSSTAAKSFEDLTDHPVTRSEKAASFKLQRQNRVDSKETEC
T4 sequence (P08254 100-477): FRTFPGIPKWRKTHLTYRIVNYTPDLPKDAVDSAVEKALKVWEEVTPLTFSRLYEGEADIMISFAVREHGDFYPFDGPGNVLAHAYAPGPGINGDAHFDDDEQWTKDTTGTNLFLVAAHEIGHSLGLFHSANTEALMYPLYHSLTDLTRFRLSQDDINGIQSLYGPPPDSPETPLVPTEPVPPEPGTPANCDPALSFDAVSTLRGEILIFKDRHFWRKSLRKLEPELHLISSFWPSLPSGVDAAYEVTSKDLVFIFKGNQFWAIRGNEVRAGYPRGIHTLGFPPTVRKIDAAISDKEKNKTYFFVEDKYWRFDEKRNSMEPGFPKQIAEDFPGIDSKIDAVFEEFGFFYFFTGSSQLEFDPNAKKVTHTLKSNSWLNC

In the case of `CC(C)CC(C(=O)Nc1ccc(C(F)(F)F)cc1)P(=O)(O)O` (stereo not shown) [Compound 4b], the IC50 ([1]; FRET-based assay, read-out: LasB IC50) is reported as 26.3 ± 7.6 nM, the IC50 ([1]; LasB IC50, FRET-based assay) is reported as about 25 nM and the IC50 ([1]; LasB IC50 in presence of 1% pulmonary surfactant, 1% pulmonary surfactant) is reported as 76 ± 23 nM. For the same compound, the microsomal CLint at 1 μM [2] was under 5.8 µL/min/mg, the microsomal CLint at 1 μM [3] was under 5.8 µL/min/mg and the half-life ([4]; C57BL6, mouse, pooled plasma, species profiling, read-out: Plasma T1/2 Mouse (C57BL6)) was over 4 h. The half-life at 1 μM ([4]; mouse plasma, read-out: Plasma T1/2 Mouse) was over 2.5 h, the inhibition at 100 µM [5] was 21 ± 1% and the inhibition at 100 µM [6] was 25 ± 4%. It also gave an inhibition at 100 µM [7] of 29 ± 8%, an inhibition at 100 µM [8] of under 10% and an inhibition at 1 µM [9] of 14 ± 8%. The microsomal CLint [10] was under 11.6 µL/min/mg, the microsomal CLint [11] was under 11.6 µL/min/mg and the half-life [12] was over 4 h. For the same compound, the half-life [13] was over 4 h, the inhibition at 100 µM ([14]; Pseudomonas aeruginosa, PA14, 100 µM compound concentration, read-out: Percent (%) growth inhibition of P. aeruginosa PA14) was under 10% and the antibacterial activity ([14]; up to 100 μM) was “do not possess any antibacterial activity”. It also gave a Kp ([15]; male, CD-1, mouse, ELF/plasma, inhaled, read-out: ELF/plasma ratio) of 6.12, a Cmax ([15]; male, CD-1, mouse, epithelial lining fluid (ELF), inhaled or intranasal, read-out: Cmax ELF) of 19900 ± 14000 ng/mL and a Tmax ([15]; male, CD-1, mouse, epithelial lining fluid (ELF), inhaled or intranasal, read-out: Tmax ELF) of 0.58 ± 0.4 h. The AUC(0-t) ([15]; male, CD-1, mouse, epithelial lining fluid (ELF), inhaled or intranasal, read-out: AUC 0-t ELF) was 49700 ± 16200 ng·h/mL, the CL/F ([15]; male, CD-1, mouse, inhaled or intranasal, plasma) was 20.7 ± 2 mL/min/kg and the Tmax ([15]; male, CD-1, mouse, lung, inhaled or intranasal, read-out: Tmax lung) was 0.33 ± 0.1 h. For the same compound, the Cmax ([15]; male, CD-1, mouse, plasma, inhaled or intranasal, read-out: Cmax plasma) was 633 ± 59 ng/mL, the Tmax ([15]; male, CD-1, mouse, plasma, inhaled or intranasal, read-out: Tmax plasma) was 4 ± 3.5 h and the MRT ([15]; male, CD-1, mouse, plasma, inhaled or intranasal) was 6.8 ± 0.3 h. For the same compound, the AUC(0-t) ([15]; male, CD-1, mouse, plasma, inhaled or intranasal, read-out: AUC 0-t plasma) was 8130 ng·h/mL, the half-life ([15]; male, CD-1, mouse, plasma, inhaled or intranasal, read-out: t1/2 plasma (converted)) was 4 ± 0.3 h and the “AUC 0-t lung” value [15] was 249.0 ± 72.9 ng·h/g. For the same compound, the Cmax lung [15] was 78.4 ± 15.9 ng/g, the “LasB protein levels in blood” value [16] was “strong reduction” and the “viability of lung organoids challenged with 5% PA14 csn” value ([17]; 5% PA14 csn, 48 h, MTT) was “improved in a dose-dependent manner”. The “toxic effects on nontreated lung organoids” value ([17]; concentrations tested up to 100 μM) was “did not have significant toxic effects”, the “% growth inhibition HepG2” value [18] was 18 ± 11% and the “% growth inhibition HEK293” value [19] was 11 ± 1%. It also gave a Survival rate ([20]; 12.5 µM) of 100%, a Survival rate ([20]; 25 µM) of 100% and a Screening observations ([20]; 25 µM, 5 dpf) of 1 nsb. The Survival rate ([20]; 50 µM) was 100%, the Screening observations ([20]; 50 µM, 5 dpf) was 2 nsb and the Survival rate ([20]; 100 μM) was 100%. For the same compound, the Screening observations ([20]; 100 µM, 3 dpf) was 1 edema, the Screening observations ([20]; 100 µM, 4 dpf) was 1 edema and the Screening observations ([20]; 100 µM, 5 dpf) was 1 nsb, 1 edema. For the same compound, the “survival of larvae infected with wt PA14” value ([21]; 1 nmol 4b, 10.7 nmol tobramycin, or both, 17% in the wild type) was 33%, the “survival in the PBS treated groups (not infected)” value ([21]; PBS with 4b, tobramycin or combination of both) was 100% and the “reduction of cleavage of collagen” value ([22]; A549 cells, 15% (v/v) wt PA14 csn, 3.15 μM) was 20%. For the same compound, the “LasB-related cytotoxicity in csn-treated A549 cells” value ([22]; PAO1 or PA14 csn) was “dose-dependent reduction of LasB-related cytotoxicity”.
